Experimental findings from US5998436A, “Pyridonecarboxylic acid derivatives or their salts and antibacterial agent comprising the same as the active ingredient” (Wakunaga Pharmaceuticals Co., Ltd., priority 1995, dated 1999) are described below.

For one series, the system named is S. aureus 209P. Description: minimum growth inhibitory concentration (MIC), standard method of Japan Chemotherapy Society. Type of series: cell-based. As to conditions: Staphylococcus aureus, read-out: minimum growth inhibitory concentration (MIC). How it is done: (§1) It should be noted that ciprofloxacin, levofloxacin,sparfloxacin and tosufloxacin which are conventional antibacterials were also evaluated for their minimum growth inhibitory concentration (MIC, μg/ml) for the purpose of comparison.

A further series concerns S. epidermidis IFO12293. The series is described as above. Type of series: cell-based. Particulars: Staphylococcus epidermidis. How it is done:
as §1

Another series has as its system P. aeruginosa IFO 3445. The description is as above. As to conditions: Pseudomonas aeruginosa. Format: cell-based. As to the method:
as §1

The test system of the next series is Female ICR mice (ears). As to conditions: mouse, in vivo, iv, 40 mg/kg. How it is done:
The compounds of the Examples 9, 10, 12 and 39 as described above were subjected to phototoxicity test by the procedure as described below.
Female ICR mice (5 to 6 week old) were intravenously administered with the test compound (40 mg/kg/10 ml), and irradiated with UV (320 to 400 nm, 1.8 mW/cm^2 /sec) for 4 hours. Abnormality in the ears was monitored at 0 hour (immediately after the irradiation) and after 24 and 48 hours. The ear abnormality was evaluated by the following is criteria: no abnormality (0 point), very slight erythema (1 point), well defined erythema (2 points), moderate to severe erythema and edema formation (3 points). Tosufloxacin which is a conventional known antibacterial agent was also tested in a similar way for the purpose of comparison.

Setting [1] is: S. epidermidis IFO12293, read-out: minimum growth inhibitory concentration (MIC).
The mark [2] stands for this setting: IFO3445, P. aeruginosa IFO 3445, read-out: minimum growth inhibitory concentration (MIC).

Molecules are shown by their SMILES. Values after ≈ are worked out from the molar mass of the structure shown. Counter-ions that a name gives are not always drawn. Like-named read-outs stand apart in the source and are kept apart here.

`C[C@H]1COc2c(N3CCN(C)CC3)c(F)cc3c(=O)c(C(=O)O)cn1c23` [Levofloxacin, levofloxacin, reference compound]: the values for the MIC in the series on S. aureus 209P (S. aureus 209P), with S. epidermidis IFO12293 (setting [1]) and in the series with P. aeruginosa IFO 3445 (setting [2]) were 0.1 µg/mL (≈ 0.277 µM), 0.39 µg/mL (≈ 1.08 µM) and 0.39 µg/mL (≈ 1.08 µM), respectively.

As for `CNC1CN(c2c(F)cc3c(=O)c(C(=O)O)cn(-c4nc(N)c(F)cc4F)c3c2Cl)C1` [Ex. 10, 1-(6-amino-3,5-difluoropyridin-2-yl)-8-chloro-6-fluoro-7-(3-methylaminoazetidin-1-yl)-4-oxo-1,4-dihydroquinoline-3-carboxylic acid], the figures for the MIC in the series on S. aureus 209P (S. aureus 209P), in the series on S. epidermidis IFO12293 (setting [1]) and in the series on P. aeruginosa IFO 3445 (setting [2]) were under 0.013 µg/mL, 0.025 µg/mL (≈ 0.0551 µM) and 0.1 µg/mL (≈ 0.22 µM), respectively. Besides, the “ear abnormality score (0 no abnormality, 1 very slight erythema, 2 well defined erythema, 3 moderate to severe erythema and edema)” value with Female ICR mice (ears) came to 0 point. The “ear abnormality, occurrence” value in the series on Female ICR mice (ears) is on record as 0/3.

In the case of `Nc1nc(-n2cc(C(=O)O)c(=O)c3cc(F)c(N4CC(N)C4)c(Br)c32)c(F)cc1F` [Ex. 39, 7-(3-aminoazetidin-1-yl)-1-(6-amino-3,5-difluoropyridin-2-yl)-8-bromo-6-fluoro-4-oxo-1,4-dihydroquinoline-3-carboxylic acid], the MIC with S. aureus 209P (S. aureus 209P) was under 0.013 µg/mL; with S. epidermidis IFO12293 (setting [1]), 0.025 µg/mL (≈ 0.0516 µM); in the series on P. aeruginosa IFO 3445 (setting [2]) it was 0.05 µg/mL (≈ 0.103 µM). Also, the “ear abnormality score (0 no abnormality, 1 very slight erythema, 2 well defined erythema, 3 moderate to severe erythema and edema)” value with Female ICR mice (ears) worked out at 0 point. Further, in the series on Female ICR mice (ears), the “ear abnormality, occurrence” value is 0/3.

As for `O=C(O)c1cn(C2CC2)c2cc(N3CCNCC3)c(F)cc2c1=O` [Ciprofloxacin, ciprofloxacin, reference compound], the MIC in the series with S. aureus 209P (209P) came out at 0.1 µg/mL (≈ 0.302 µM); with S. epidermidis IFO12293 (IFO12293, read-out: minimum growth inhibitory concentration (MIC)), 0.39 µg/mL (≈ 1.18 µM); in the series with P. aeruginosa IFO 3445 (IFO3445, read-out: minimum growth inhibitory concentration (MIC)) it was 0.2 µg/mL (≈ 0.604 µM).

Take `C[C@@H]1CN(c2c(F)c(N)c3c(=O)c(C(=O)O)cn(C4CC4)c3c2F)C[C@H](C)N1` [Sparfloxacin, sparfloxacin, reference compound]: the MIC in the series with S. aureus 209P (S. aureus 209P) worked out at 0.1 µg/mL (≈ 0.255 µM); with S. epidermidis IFO12293 (setting [1]), 0.2 µg/mL (≈ 0.51 µM); with P. aeruginosa IFO 3445 (setting [2]), 0.78 µg/mL (≈ 1.99 µM).

`Nc1nc(-n2cc(C(=O)O)c(=O)c3cc(F)c(N4CC(N)C4)c(Cl)c32)c(F)cc1F` [Ex. 9, 7-(3-aminoazetidin-1-yl)-1-(6-amino-3,5-difluoropyridin-2-yl)-8-chloro-6-fluoro-4-oxo-1,4-dihydroquinoline-3-carboxylic acid]: the MIC in the series with S. aureus 209P (S. aureus 209P) was under 0.013 µg/mL; in the series on S. epidermidis IFO12293 (setting [1]) it was 0.025 µg/mL (≈ 0.0568 µM); with P. aeruginosa IFO 3445 (setting [2]), 0.05 µg/mL (≈ 0.114 µM). For the same molecule, the “ear abnormality score (0 no abnormality, 1 very slight erythema, 2 well defined erythema, 3 moderate to severe erythema and edema)” value in the series with Female ICR mice (ears) is on record as 0 point. Moreover, the “ear abnormality, occurrence” value with Female ICR mice (ears) was 0/3.

`NC1CCN(c2nc3c(cc2F)c(=O)c(C(=O)O)cn3-c2ccc(F)cc2F)C1` (centres unmarked) [Tosufloxacin, tosufloxacin, reference compound]: the MIC with S. aureus 209P (S. aureus 209P) worked out at 0.05 µg/mL (≈ 0.124 µM); in the series with S. epidermidis IFO12293 (setting [1]) it was 0.2 µg/mL (≈ 0.495 µM); in the series on P. aeruginosa IFO 3445 (setting [2]) it was 0.39 µg/mL (≈ 0.965 µM).

For the molecule `Nc1nc(-n2cc(C(=O)O)c(=O)c3cc(F)c(N4CC(O)C4)c(Cl)c32)c(F)cc1F` [Ex. 12, 3-hydroxyazetidine salt of 1-(6-amino-3,5-difluoropyridin-2-yl)-8-chloro-6-fluoro-7-(3-hydroxyazetidin-1-yl)-4-oxo-1,4-dihydroquinoline-3-carboxylic acid], the results for the MIC in the series with S. aureus 209P (S. aureus 209P), with S. epidermidis IFO12293 (setting [1]) and in the series on P. aeruginosa IFO 3445 (setting [2]) were under 0.013 µg/mL, under 0.013 µg/mL and 0.39 µg/mL, respectively. The “ear abnormality score (0 no abnormality, 1 very slight erythema, 2 well defined erythema, 3 moderate to severe erythema and edema)” value in the series on Female ICR mice (ears) was 0 point. Also, the “ear abnormality, occurrence” value in the series with Female ICR mice (ears) was 0/3.
